From US20200022998A1, “MEDICAL USE OF NOTCH4 OR INHIBITORS THEREOF” (BEIJING INSTITUTE OF GENOMICS, CHINESE ACADEMY OF SCIENCES, priority 2016, published 2020)

Legend:
[1] = tested on: normal iPSC BC1; assay: in vitro megakaryocyte lineage differentiation of iPSC BC1 (spin-EB), flow cytometry at Day 14; assay type: cell-based, human
Procedure: BC1 cell line was cultured in E8 medium, under the culture condition of 37° C., 5% CO2, and was passaged at (1:5)-(1:10) every 3-4 days depending on the concentration of cells. The cells were incubated in 0.5 mM EDTA, at room temperature for 2 min, and then were re-suspended and split up and down with E8 medium, and transferred to a culture dish that had been coated with Vitronectin one hour before.
During differentiation, spin-embryoid body (spin-EB) method was used (Ng E S, Davis R, Stanley E G, Elefanty A G, A protocol describing the use of a recombinant protein-based, animal product-free medium (APEL) for human embryonic stem cell differentiation as spin embryoid bodies, Nat Protoc. 2008; 3(5): 768-76.). At Day 0 (D0) after differentiation, iPSCs reached a confluence of above 85% (confluence refers to the percentage of the surface of a culture dish that is covered by adherent cells). After digestion with Accutase at 37° C. for 3 min, the cells were neutralized and split in SFM medium (50% IMDM, 50% Ham's F12, and the added reagents and factors including: human albumin, monothioglycerol, Glutamax, Chemically Defined Lipid Concentrate, L-Ascorbic acid 2-phosphate sesquimagnesium salt hydrate, ITS-X), counted, and centrifuged. After the cells were re-suspended in SFM, cytokines, i.e. 10 μM ROCK inhibitor (Rho-associated protein kinase inhibitor), 10 ng/ml bFGF, and 10 ng/ml BMP4, were added. Cells were seeded to a round-bottom 96-well plate, at 3000 or 5000 cells/50 μl for each well (3000 or 5000 cells were seeded to each well, in a volume of 50 μl for each well). At Day 2, 50 μl SFM medium+10 ng/ml bFGF+10 ng/ml BMP4+100 ng/ml SCF+20 ng/ml VEGF was added to each well. At Day 5, Day 8, and Day 11, 50 μl SFM medium+10 ng/ml bFGF+10 ng/ml BMP4+50 ng/ml SCF+10 ng/ml VEGF was added to each well, wherein 100 μl old medium was pipetted off at Day 8, and 10 ng/ml thrombopoietin (TPO) was added to each well at Day 11.
At Day 14 (D14), single cells (suspending cells) surrounding embryoid bodies (EBs) were collected. The cells were used in the following flow cytometry.
The cell surface markers (CD34, CD45, CD41, CD42) of the collected cells were detected by flow cytometer. The assay was as followed.
The detection was carried out in four tubes: the first tube was a negative tube that was not labeled with any flow antibody; the second tube was labelled with two antibodies CD34-APC and CD45-PE; the third tube was labeled with CD34-APC and CD41-PE; and the fourth tube was labeled with CD41-PE and CD42-APC, wherein CD34^+CD45^+represented the population of hematopoietic stem/progenitor cells (HSPCs), CD34^+CD41^+ represented the population of megakaryocyte progenitor cells (MKPs), and CD41^+CD42^+ represented the population of mature megakaryocytes (MKs).
(1) The BC1 cell line used was the same as the one used in Example 1, and was divided into three groups, wherein two 96-well plates were used for each group, and the cells were seeded at 5000 cells/50 μl to each well. In vitro differentiation was carried out by reference to the steps in Example 1, wherein the step of adding a drug was carried out in accordance with the following steps in I-III groups:
I. At Day 0 after differentiation, 10 μM RO4929097 was added, and DMSO was added to the control well.
III. At Day 2 after differentiation, 10 μM RO4929097, 10 μM L-685458, and 10 μM DAPT were added, respectively; in addition, at Day 5 after differentiation, 10 μM RO4929097, 10 μM L-685458, and 10 μM DAPT were added, respectively.
(2) The cells were collected for flow cytometry analysis, and as to the steps, please refer to the Example 1 above. […]
I. At Day 0 after differentiation, 10 μM RO4929097, and 10 μM DAPT were added, respectively.
II. At Day 2 after differentiation, 10 μM RO4929097, and 10 μM DAPT were added, respectively.
III. At Day 5 after differentiation, 10 μM RO4929097, and 10 μM DAPT were added, respectively.
IV. […]

[2] = tested on: umbilical cord blood-derived CD34+ cells; assay: in vitro megakaryocyte lineage differentiation of umbilical cord blood-derived CD34+ cells, flow cytometry; assay type: cell-based, human; conditions: 10 μM; cells collected at D14; FIG. 14
Procedure: (1) CD34^+ cells in umbilical cord blood were obtained by Ficoll-Paque PLUS density gradient centrifugation and magnetic bead sorting using CD34 MicroBead Kit. As to the particular steps, please refer to (GE Healthcare Life Sciences, http://www.gelifesciences.com), (Miltenyi Biotec, http://www.miltenyibiotec.com.cn).
(2) Differentiation of umbilical cord blood-derived CD34^+ cells into megakaryocytes: umbilical cord blood-derived CD34^+ cells were counted, and seeded at 1*10^6 cells to 4 ml StemSpan™ SFEM 11+50 ng/ml SCF+50 ng/ml TPO+50 ng/ml IL-6+20 ng/ml IL-3 in a 12-well plate, with 1 ml medium for each well, and four wells in total, to which 10 μM R04929097, 10 μM L-685458, 10 μM DAPT, and the same volume of DMSO as control were added, respectively, and the time was recorded as Day 0. The liquid was changed every 3 days, and the culture condition was 37° C., 5% CO2. After incubation for 6 days, the cell density was high, and the cells in each well were divided into two wells of a 12-well plate, with 2 ml medium for each well. The inhibitors were added at the same concnetrations as described above. The cells were collected at D14, counted, and detected for cell surface markers (CD41, CD42, CD61) by flow cytometer.
As to the collection of umbilical cord blood-derived CD34^+ cells, in vitro megakaryocytic differentiation and detection, please refer to Example 4-1.

CC(C)C[C@H](NC(=O)[C@H](Cc1ccccc1)C[C@@H](O)[C@H](Cc1ccccc1)NC(=O)OC(C)(C)C)C(=O)N[C@@H](Cc1ccccc1)C(N)=O [L-685458]
increase of proportion of mature megakaryocytes produced vs DMSO control ([1]; 5 μM added at Day 2, FIG. 6): 21%
decrease of proportion of HSPCs (CD34+CD45+) vs DMSO control ([1]; 10 μM added at Day 2, FIG. 7A): 27%
proportion of MKPs (CD34+CD41+) produced, increased fold vs DMSO control (set as 1) ([1]; 10 μM added at Day 2, FIG. 7A): about 1.5 folds
proportion of mature megakaryocytes MKs (CD41+CD42+) produced, increased fold vs DMSO control (set as 1) ([1]; 10 μM added at Day 2, FIG. 7A): about 2.3 folds
proportion of HSPCs produced, increased fold vs DMSO control (set as 1) ([1]; 10 μM added at Day 5, FIG. 7B): about 1.5 folds
proportion of MKPs produced, increased fold vs DMSO control (set as 1) ([1]; 10 μM added at Day 5, FIG. 7B): about 1.2 folds
proportion of mature megakaryocytes MKs produced, increased fold vs DMSO control (set as 1) ([1]; 10 μM added at Day 5, FIG. 7B): about 3.8 folds
total number of hematopoietic cells, increase vs control group ([1]; 10 μM added at Day 5, FIG. 7B): 2.3 folds
production of megakaryocyte progenitor cells and/or mature megakaryocytes in vitro ([1]; screen in the in vitro differentiation system of stem cells): significantly promote
proportion of mature megakaryocyte (CD61+), increase vs control group [2]: 2.4 folds
proportion of mature megakaryocytes MK (CD41+CD42+) produced, increase vs control group [2]: 2.3 folds
